From US20250000865A1, “COMPOUND FOR REDUCING URIC ACID LEVELS” (NEWSOARA BIOPHARMA CO., LTD., priority 2021, published 2025)

System: healthy subjects
Test: Phase I clinical trial, multiple-dose groups (once a day, 7 consecutive days): uric acid index before and after treatment
Type: in vivo, human
Conditions: for Uric acid (UA) Mean (standard deviation) / Uric acid (UA) Median / Uric acid (UA) Minimum value / Uric acid (UA) maximum value / Uric acid (UA) Changes over baseline at last visit (on day 14), Mean (standard deviation) / Uric acid (UA) Changes over baseline at last visit (on day 14), Median / Uric acid (UA) Changes over baseline at last visit (on day 14), Minimum value / Uric acid (UA) Changes over baseline at last visit (on day 14), maximum value / Uric acid (UA) Changes over baseline on day 2, Mean (standard deviation) / Uric acid (UA) Changes over baseline on day 2, Median / Uric acid (UA) Changes over baseline on day 2, Minimum value / Uric acid (UA) Changes over baseline on day 2, maximum value / Uric acid (UA) Changes over baseline on day 11, Mean (standard deviation) / Uric acid (UA) Changes over baseline on day 11, Median / Uric acid (UA) Changes over baseline on day 11, Minimum value / Uric acid (UA) Changes over baseline on day 11, maximum value / Uric acid (UA) Changes over baseline on days 4-6, Mean (standard deviation) / Uric acid (UA) Changes over baseline on days 4-6, Median / Uric acid (UA) Changes over baseline on days 4-6, Minimum value / Uric acid (UA) Changes over baseline on days 4-6, maximum value: N = 9
Method: The changes of uric acid levels in subjects in single-dose and multi-dose groups of Compound I are shown in FIG. 1A (single dose of 6 mg and single dose of 10 mg), FIG. 1B (single dose of 20 mg and single dose of 30 mg), and FIG. 2 (multi-dose of 10 mg and multi-dose of 20 mg). The corresponding results are also shown in Tables 1.1, 1.2, 1.3, and 2.1, and tables 2.2, 2.3, and 2.4.

[1] = Baseline, multiple dose 10 mg once a day 7 days
[2] = Baseline, multiple dose 20 mg once a day 7 days
[3] = Day 2, multiple dose 10 mg once a day 7 days
[4] = Day 2, multiple dose 20 mg once a day 7 days
[5] = Day 11, multiple dose 10 mg once a day 7 days
[6] = Day 11, multiple dose 20 mg once a day 7 days
[7] = Days 4-6, multiple dose 10 mg once a day 7 days
[8] = Days 4-6, multiple dose 20 mg once a day 7 days
[9] = Last visit (day 14), multiple dose 10 mg once a day 7 days
[10] = Last visit (day 14), multiple dose 20 mg once a day 7 days
[11] = multiple dose 10 mg once a day 7 days
[12] = multiple dose 20 mg once a day 7 days

Question: Which “Uric acid (UA) Mean (standard deviation)” value [1] does the source give for COc1cccc2c1ncc1c(=O)n(C3CCC(C(=O)O)CC3)c(=O)n(-c3cccc(Cl)c3)c12 (centres unmarked) [Compound I, 4-[1-(3-chlorophenyl)-7-methoxy-2,4-dioxo-pyrimido[5,4-c]quinolin-3-yl]cyclohexanecarboxylic acid] here?
Answer: 314.4 (84.59) μmol/L

Question: What about the “Uric acid (UA) Median” value [1] of the same molecule?
Answer: 290.0 µmol/L

Question: What about the “Uric acid (UA) Minimum value” [1] of the same molecule?
Answer: 215 µmol/L

Question: And the “Uric acid (UA) maximum value” [1]?
Answer: 452 µmol/L

Question: What about the “Uric acid (UA) Mean (standard deviation)” value [2] of the same molecule?
Answer: 337.2 (50.38) μmol/L

Question: What about the “Uric acid (UA) Median” value [2] of the same molecule?
Answer: 349.0 µmol/L

Question: What about the “Uric acid (UA) Minimum value” [2] of the same molecule?
Answer: 259 µmol/L

Question: And the “Uric acid (UA) maximum value” [2]?
Answer: 400 µmol/L

Question: What about the “Uric acid (UA) Mean (standard deviation)” value [3] of the same molecule?
Answer: 254.9 (74.41) μmol/L

Question: And the “Uric acid (UA) Median” value [3]?
Answer: 248.0 µmol/L

Question: What about the “Uric acid (UA) Minimum value” [3] of the same molecule?
Answer: 155 µmol/L

Question: And the “Uric acid (UA) maximum value” [3]?
Answer: 397 µmol/L

Question: And the “Uric acid (UA) Mean (standard deviation)” value [4]?
Answer: 221.6 (63.82) μmol/L

Question: What about the “Uric acid (UA) Median” value [4] of the same molecule?
Answer: 216.0 µmol/L

Question: What about the “Uric acid (UA) Minimum value” [4] of the same molecule?
Answer: 142 µmol/L

Question: And the “Uric acid (UA) maximum value” [4]?
Answer: 373 µmol/L

Question: And the “Uric acid (UA) Mean (standard deviation)” value [5]?
Answer: 325.1 (67.57) μmol/L

Question: What about the “Uric acid (UA) Median” value [5] of the same molecule?
Answer: 314.0 µmol/L

Question: And the “Uric acid (UA) Minimum value” [5]?
Answer: 222 µmol/L

Question: And the “Uric acid (UA) maximum value” [5]?
Answer: 439 µmol/L

Question: What about the “Uric acid (UA) Mean (standard deviation)” value [6] of the same molecule?
Answer: 341.8 (58.10) μmol/L

Question: And the “Uric acid (UA) Median” value [6]?
Answer: 323.0 µmol/L

Question: And the “Uric acid (UA) Minimum value” [6]?
Answer: 262 µmol/L

Question: And the “Uric acid (UA) maximum value” [6]?
Answer: 460 µmol/L

Question: What about the “Uric acid (UA) Mean (standard deviation)” value [7] of the same molecule?
Answer: 201.8 (58.87) μmol/L

Question: And the “Uric acid (UA) Median” value [7]?
Answer: 204.0 µmol/L

Question: What about the “Uric acid (UA) Minimum value” [7] of the same molecule?
Answer: 119 µmol/L

Question: And the “Uric acid (UA) maximum value” [7]?
Answer: 307 µmol/L

Question: And the “Uric acid (UA) Mean (standard deviation)” value [8]?
Answer: 158.0 (51.31) μmol/L

Question: What about the “Uric acid (UA) Median” value [8] of the same molecule?
Answer: 140.0 µmol/L

Question: And the “Uric acid (UA) Minimum value” [8]?
Answer: 105 µmol/L

Question: And the “Uric acid (UA) maximum value” [8]?
Answer: 267 µmol/L

Question: What about the “Uric acid (UA) Mean (standard deviation)” value [9] of the same molecule?
Answer: 326.9 (74.58) μmol/L

Question: What about the “Uric acid (UA) Median” value [9] of the same molecule?
Answer: 337.0 µmol/L

Question: What about the “Uric acid (UA) Minimum value” [9] of the same molecule?
Answer: 219 µmol/L

Question: What about the “Uric acid (UA) maximum value” [9] of the same molecule?
Answer: 422 µmol/L

Question: And the “Uric acid (UA) Mean (standard deviation)” value [10]?
Answer: 378.4 (37.55) μmol/L

Question: And the “Uric acid (UA) Median” value [10]?
Answer: 376.0 µmol/L

Question: And the “Uric acid (UA) Minimum value” [10]?
Answer: 309 µmol/L

Question: And the “Uric acid (UA) maximum value” [10]?
Answer: 440 µmol/L

Question: And the “uric acid level on the following days (days 4-6)” value (multi-dose groups)?
Answer: continuous decrease

Question: What about the “uric acid level the next day after administration” value (multi-dose groups, certain dose dependence) of the same molecule?
Answer: decreases obviously

Question: And the “Uric acid (UA) Changes over baseline at last visit (on day 14), Mean (standard deviation)” value [11]?
Answer: 12.4 (37.22) μmol/L

Question: And the “Uric acid (UA) Changes over baseline at last visit (on day 14), Median” value [11]?
Answer: 6.0 µmol/L

Question: And the “Uric acid (UA) Changes over baseline at last visit (on day 14), Minimum value” [11]?
Answer: -45 µmol/L

Question: What about the “Uric acid (UA) Changes over baseline at last visit (on day 14), maximum value” [11] of the same molecule?
Answer: 58 µmol/L

Question: And the “Uric acid (UA) Changes over baseline on day 2, Mean (standard deviation)” value [11]?
Answer: −59.6 (40.77) μmol/L

Question: And the “Uric acid (UA) Changes over baseline on day 2, Median” value [11]?
Answer: -50.0 µmol/L

Question: And the “Uric acid (UA) Changes over baseline on day 2, Minimum value” [11]?
Answer: -135 µmol/L

Question: And the “Uric acid (UA) Changes over baseline on day 2, maximum value” [11]?
Answer: 6 µmol/L

Question: What about the “Uric acid (UA) Changes over baseline on day 11, Mean (standard deviation)” value [11] of the same molecule?
Answer: 10.7 (31.86) μmol/L

Question: And the “Uric acid (UA) Changes over baseline on day 11, Median” value [11]?
Answer: 15.0 µmol/L

Question: And the “Uric acid (UA) Changes over baseline on day 11, Minimum value” [11]?
Answer: -52 µmol/L

Question: What about the “Uric acid (UA) Changes over baseline on day 11, maximum value” [11] of the same molecule?
Answer: 60 µmol/L

Question: What about the “Uric acid (UA) Changes over baseline on days 4-6, Mean (standard deviation)” value [11] of the same molecule?
Answer: −112.7 (57.68) μmol/L

Question: What about the “Uric acid (UA) Changes over baseline on days 4-6, Median” value [11] of the same molecule?
Answer: -118.0 µmol/L

Question: And the “Uric acid (UA) Changes over baseline on days 4-6, Minimum value” [11]?
Answer: -234 µmol/L

Question: What about the “Uric acid (UA) Changes over baseline on days 4-6, maximum value” [11] of the same molecule?
Answer: -35 µmol/L

Question: What about the “Uric acid (UA) Changes over baseline at last visit (on day 14), Mean (standard deviation)” value [12] of the same molecule?
Answer: 41.2 (44.32) μmol/L

Question: What about the “Uric acid (UA) Changes over baseline at last visit (on day 14), Median” value [12] of the same molecule?
Answer: 40.0 µmol/L

Question: What about the “Uric acid (UA) Changes over baseline at last visit (on day 14), Minimum value” [12] of the same molecule?
Answer: -11 µmol/L

Question: And the “Uric acid (UA) Changes over baseline at last visit (on day 14), maximum value” [12]?
Answer: 135 µmol/L

Question: And the “Uric acid (UA) Changes over baseline on day 2, Mean (standard deviation)” value [12]?
Answer: −115.7 (55.40) μmol/L

Question: And the “Uric acid (UA) Changes over baseline on day 2, Median” value [12]?
Answer: -142.0 µmol/L

Question: And the “Uric acid (UA) Changes over baseline on day 2, Minimum value” [12]?
Answer: -184 µmol/L

Question: And the “Uric acid (UA) Changes over baseline on day 2, maximum value” [12]?
Answer: -26 µmol/L

Question: And the “Uric acid (UA) Changes over baseline on day 11, Mean (standard deviation)” value [12]?
Answer: 4.6 (43.38) μmol/L

Question: And the “Uric acid (UA) Changes over baseline on day 11, Median” value [12]?
Answer: 2.0 µmol/L

Question: And the “Uric acid (UA) Changes over baseline on day 11, Minimum value” [12]?
Answer: -52 µmol/L

Question: What about the “Uric acid (UA) Changes over baseline on day 11, maximum value” [12] of the same molecule?
Answer: 67 µmol/L

Question: And the “Uric acid (UA) Changes over baseline on days 4-6, Mean (standard deviation)” value [12]?
Answer: −179.2 (54.55) μmol/L

Question: And the “Uric acid (UA) Changes over baseline on days 4-6, Median” value [12]?
Answer: -175.0 µmol/L

Question: What about the “Uric acid (UA) Changes over baseline on days 4-6, Minimum value” [12] of the same molecule?
Answer: -260 µmol/L

Question: And the “Uric acid (UA) Changes over baseline on days 4-6, maximum value” [12]?
Answer: -108 µmol/L
